How the values were obtained:
[1] = target: Aurora kinase C (Homo sapiens) (UniProt Q9UQB9); conditions: Compound concentration 100.0 nM
[2] = target: T1, Cytoplasmic tyrosine-protein kinase BMX (Homo sapiens) (UniProt P51813); conditions: Compound concentration 100.0 nM
T1 sequence (whole entry): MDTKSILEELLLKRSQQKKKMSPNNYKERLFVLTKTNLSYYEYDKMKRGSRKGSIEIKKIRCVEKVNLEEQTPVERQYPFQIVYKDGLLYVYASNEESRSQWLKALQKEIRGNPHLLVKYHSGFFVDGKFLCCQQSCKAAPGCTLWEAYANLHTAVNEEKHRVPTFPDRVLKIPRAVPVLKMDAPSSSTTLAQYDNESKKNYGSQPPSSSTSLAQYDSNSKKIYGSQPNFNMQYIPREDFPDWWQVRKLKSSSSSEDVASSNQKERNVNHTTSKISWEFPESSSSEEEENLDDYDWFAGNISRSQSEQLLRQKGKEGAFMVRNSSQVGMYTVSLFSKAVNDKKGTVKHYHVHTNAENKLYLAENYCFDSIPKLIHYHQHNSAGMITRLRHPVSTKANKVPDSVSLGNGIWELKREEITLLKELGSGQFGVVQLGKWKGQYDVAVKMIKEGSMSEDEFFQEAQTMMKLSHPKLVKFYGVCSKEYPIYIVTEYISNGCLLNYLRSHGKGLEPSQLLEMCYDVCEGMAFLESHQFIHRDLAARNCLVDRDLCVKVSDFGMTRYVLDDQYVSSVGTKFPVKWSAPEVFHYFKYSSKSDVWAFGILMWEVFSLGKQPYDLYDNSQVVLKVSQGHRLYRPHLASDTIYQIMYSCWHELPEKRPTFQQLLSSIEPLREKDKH

[3] = target: Casein kinase II subunit alpha' (Homo sapiens) (UniProt P19784); conditions: Compound concentration 100.0 nM
Chain of Casein kinase II subunit alpha' (Homo sapiens) (P19784 whole entry, looked up): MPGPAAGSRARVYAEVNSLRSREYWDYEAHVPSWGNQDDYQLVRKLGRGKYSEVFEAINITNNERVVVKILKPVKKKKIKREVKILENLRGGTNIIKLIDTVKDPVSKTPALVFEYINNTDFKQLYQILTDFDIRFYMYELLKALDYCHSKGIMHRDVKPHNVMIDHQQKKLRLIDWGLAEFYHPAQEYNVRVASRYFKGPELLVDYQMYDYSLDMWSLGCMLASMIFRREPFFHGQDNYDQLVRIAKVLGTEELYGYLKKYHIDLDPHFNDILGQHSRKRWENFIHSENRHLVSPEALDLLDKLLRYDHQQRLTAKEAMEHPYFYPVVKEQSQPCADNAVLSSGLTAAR

[4] = target: Serine/threonine-protein kinase/endoribonuclease IRE1 (Homo sapiens) (UniProt O75460); conditions: Compound concentration 100.0 nM
Chain of Serine/threonine-protein kinase/endoribonuclease IRE1 (Homo sapiens) (O75460 19-977 limits assumed): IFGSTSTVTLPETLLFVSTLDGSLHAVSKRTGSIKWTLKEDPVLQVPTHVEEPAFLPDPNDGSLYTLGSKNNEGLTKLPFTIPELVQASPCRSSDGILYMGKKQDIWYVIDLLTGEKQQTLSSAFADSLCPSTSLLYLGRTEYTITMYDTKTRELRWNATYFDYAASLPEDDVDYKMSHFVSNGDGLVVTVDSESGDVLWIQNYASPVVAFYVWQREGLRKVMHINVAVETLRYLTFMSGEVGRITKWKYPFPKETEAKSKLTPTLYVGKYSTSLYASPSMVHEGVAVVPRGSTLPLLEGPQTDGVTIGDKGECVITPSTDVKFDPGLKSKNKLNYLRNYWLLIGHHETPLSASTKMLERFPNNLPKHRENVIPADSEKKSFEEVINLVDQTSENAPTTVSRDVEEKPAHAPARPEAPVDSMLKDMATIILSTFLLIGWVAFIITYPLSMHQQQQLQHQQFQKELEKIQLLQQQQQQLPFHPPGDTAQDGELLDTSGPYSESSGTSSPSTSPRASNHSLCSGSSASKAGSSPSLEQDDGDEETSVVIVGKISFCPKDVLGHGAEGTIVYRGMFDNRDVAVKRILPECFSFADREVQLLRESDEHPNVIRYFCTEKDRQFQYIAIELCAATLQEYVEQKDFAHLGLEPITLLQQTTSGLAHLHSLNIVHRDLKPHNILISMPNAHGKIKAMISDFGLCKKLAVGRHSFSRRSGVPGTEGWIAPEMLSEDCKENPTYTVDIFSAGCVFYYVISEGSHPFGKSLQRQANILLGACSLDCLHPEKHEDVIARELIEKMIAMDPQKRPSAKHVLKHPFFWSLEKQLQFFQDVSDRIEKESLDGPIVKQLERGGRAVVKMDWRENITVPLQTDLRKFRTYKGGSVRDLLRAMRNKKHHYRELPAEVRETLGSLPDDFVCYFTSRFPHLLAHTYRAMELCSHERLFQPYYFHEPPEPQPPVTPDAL

[5] = test system: eIF-2-alpha kinase GCN2 (Homo sapiens), Q9P2K8 [S808G]; conditions: Compound concentration 100.0 nM
[6] = target: Tyrosine-protein kinase JAK1 (Homo sapiens) (UniProt P23458); conditions: Compound concentration 100.0 nM
[7] = target: Leucine-rich repeat serine/threonine-protein kinase 2 (Homo sapiens) (UniProt Q5S007); conditions: Compound concentration 100.0 nM
[8] = target: Mitogen-activated protein kinase kinase kinase 11 (Homo sapiens) (UniProt Q16584); conditions: Compound concentration 100.0 nM
[9] = target: Serine/threonine-protein kinase Nek5 (Homo sapiens) (UniProt Q6P3R8); conditions: Compound concentration 100.0 nM
Chain of Serine/threonine-protein kinase Nek5 (Homo sapiens) (Q6P3R8 whole entry): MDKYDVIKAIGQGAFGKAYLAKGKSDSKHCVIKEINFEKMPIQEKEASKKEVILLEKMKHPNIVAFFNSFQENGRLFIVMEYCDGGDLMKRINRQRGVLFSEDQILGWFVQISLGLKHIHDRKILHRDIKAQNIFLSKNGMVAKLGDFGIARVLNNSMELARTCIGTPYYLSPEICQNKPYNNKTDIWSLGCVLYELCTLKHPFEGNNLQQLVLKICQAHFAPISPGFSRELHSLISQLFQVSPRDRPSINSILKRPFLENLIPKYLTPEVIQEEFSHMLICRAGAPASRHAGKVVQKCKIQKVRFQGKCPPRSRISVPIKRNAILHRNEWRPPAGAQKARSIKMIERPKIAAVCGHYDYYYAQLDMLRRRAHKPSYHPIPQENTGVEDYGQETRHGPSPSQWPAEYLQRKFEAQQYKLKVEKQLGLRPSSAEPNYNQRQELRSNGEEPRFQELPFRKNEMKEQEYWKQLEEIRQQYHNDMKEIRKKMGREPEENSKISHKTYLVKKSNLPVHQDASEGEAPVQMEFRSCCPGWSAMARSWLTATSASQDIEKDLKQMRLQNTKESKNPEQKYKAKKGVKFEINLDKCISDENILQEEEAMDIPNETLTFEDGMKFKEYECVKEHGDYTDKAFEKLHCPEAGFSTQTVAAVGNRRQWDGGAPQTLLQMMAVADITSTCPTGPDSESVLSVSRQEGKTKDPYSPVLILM

[10] = target: 1-phosphatidylinositol 3-phosphate 5-kinase (Homo sapiens) (UniProt Q9Y2I7); conditions: Compound concentration 100.0 nM
[11] = target: T2, Serine/threonine-protein kinase Sgk1 (Homo sapiens) (UniProt O00141); conditions: Compound concentration 100.0 nM
T2 sequence (whole entry): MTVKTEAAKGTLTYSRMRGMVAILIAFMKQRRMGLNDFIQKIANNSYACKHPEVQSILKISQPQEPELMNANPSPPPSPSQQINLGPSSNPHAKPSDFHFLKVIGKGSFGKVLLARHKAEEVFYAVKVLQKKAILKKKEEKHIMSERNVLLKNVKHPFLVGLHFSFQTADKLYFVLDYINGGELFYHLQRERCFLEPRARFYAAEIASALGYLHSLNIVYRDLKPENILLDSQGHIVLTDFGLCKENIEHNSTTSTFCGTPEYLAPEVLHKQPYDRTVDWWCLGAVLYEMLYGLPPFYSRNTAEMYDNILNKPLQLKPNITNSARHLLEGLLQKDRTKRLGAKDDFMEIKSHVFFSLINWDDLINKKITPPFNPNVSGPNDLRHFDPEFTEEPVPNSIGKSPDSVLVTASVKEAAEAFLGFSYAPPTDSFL

[12] = target: High affinity nerve growth factor receptor (Homo sapiens) (UniProt P04629); conditions: Compound concentration 100.0 nM
Chain of High affinity nerve growth factor receptor (Homo sapiens) (P04629 33-796 limits assumed): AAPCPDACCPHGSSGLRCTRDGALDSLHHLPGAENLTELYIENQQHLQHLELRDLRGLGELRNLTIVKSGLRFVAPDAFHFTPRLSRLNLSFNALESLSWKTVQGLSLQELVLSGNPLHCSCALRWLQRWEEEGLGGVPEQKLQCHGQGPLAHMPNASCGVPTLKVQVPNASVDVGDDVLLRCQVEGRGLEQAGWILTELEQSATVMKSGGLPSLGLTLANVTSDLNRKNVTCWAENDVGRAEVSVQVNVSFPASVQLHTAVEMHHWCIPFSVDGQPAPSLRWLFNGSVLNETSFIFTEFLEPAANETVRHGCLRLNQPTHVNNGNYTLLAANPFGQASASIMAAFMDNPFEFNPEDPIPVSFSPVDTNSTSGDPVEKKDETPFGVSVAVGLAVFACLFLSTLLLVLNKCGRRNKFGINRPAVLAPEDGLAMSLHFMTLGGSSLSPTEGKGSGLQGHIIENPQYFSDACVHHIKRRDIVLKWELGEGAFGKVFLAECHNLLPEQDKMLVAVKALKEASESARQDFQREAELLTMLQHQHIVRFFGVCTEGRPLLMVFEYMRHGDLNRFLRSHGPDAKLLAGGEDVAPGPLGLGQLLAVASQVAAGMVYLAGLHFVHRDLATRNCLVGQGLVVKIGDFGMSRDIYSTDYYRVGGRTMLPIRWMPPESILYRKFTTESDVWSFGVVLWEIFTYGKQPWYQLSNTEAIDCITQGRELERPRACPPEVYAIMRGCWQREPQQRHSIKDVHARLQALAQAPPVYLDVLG

[13] = target: Tyrosine-protein kinase TXK (Homo sapiens) (UniProt P42681); conditions: Compound concentration 100.0 nM
[14] = target: Non-receptor tyrosine-protein kinase TYK2 (Homo sapiens) (UniProt P29597); conditions: Compound concentration 100.0 nM
Chain of Non-receptor tyrosine-protein kinase TYK2 (Homo sapiens) (P29597 whole entry): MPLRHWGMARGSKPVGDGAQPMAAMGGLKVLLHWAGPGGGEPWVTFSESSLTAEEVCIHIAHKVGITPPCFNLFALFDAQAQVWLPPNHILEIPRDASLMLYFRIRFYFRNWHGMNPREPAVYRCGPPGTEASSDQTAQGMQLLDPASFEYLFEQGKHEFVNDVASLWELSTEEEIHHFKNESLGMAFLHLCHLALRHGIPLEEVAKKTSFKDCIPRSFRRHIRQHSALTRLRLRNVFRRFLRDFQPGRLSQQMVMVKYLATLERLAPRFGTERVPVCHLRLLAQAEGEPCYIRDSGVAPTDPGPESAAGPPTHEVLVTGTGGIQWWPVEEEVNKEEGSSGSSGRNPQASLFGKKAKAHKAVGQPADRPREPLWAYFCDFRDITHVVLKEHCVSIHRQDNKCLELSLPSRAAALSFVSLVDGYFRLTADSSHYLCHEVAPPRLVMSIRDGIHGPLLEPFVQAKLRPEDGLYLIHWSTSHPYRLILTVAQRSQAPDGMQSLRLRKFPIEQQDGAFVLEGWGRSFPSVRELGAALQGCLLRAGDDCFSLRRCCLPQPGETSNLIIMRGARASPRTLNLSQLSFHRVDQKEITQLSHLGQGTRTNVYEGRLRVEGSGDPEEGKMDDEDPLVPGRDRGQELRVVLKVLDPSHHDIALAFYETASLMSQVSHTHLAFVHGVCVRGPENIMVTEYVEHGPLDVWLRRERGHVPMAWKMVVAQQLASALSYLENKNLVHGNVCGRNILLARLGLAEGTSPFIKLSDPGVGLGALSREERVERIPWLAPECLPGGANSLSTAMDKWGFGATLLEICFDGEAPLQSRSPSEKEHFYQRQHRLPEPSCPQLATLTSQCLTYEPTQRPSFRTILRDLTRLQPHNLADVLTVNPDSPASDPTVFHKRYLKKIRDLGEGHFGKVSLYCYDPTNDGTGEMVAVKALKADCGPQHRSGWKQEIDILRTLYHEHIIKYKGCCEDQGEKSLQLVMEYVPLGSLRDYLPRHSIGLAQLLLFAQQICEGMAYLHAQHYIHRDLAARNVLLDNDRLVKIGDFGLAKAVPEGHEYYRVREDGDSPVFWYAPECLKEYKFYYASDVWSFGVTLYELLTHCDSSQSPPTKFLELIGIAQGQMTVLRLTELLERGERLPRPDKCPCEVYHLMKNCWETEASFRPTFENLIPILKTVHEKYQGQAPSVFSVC

[15] = target: Serine/threonine-protein kinase ULK2 (Homo sapiens) (UniProt Q8IYT8); conditions: Compound concentration 100.0 nM
Chain of Serine/threonine-protein kinase ULK2 (Homo sapiens) (Q8IYT8 whole entry): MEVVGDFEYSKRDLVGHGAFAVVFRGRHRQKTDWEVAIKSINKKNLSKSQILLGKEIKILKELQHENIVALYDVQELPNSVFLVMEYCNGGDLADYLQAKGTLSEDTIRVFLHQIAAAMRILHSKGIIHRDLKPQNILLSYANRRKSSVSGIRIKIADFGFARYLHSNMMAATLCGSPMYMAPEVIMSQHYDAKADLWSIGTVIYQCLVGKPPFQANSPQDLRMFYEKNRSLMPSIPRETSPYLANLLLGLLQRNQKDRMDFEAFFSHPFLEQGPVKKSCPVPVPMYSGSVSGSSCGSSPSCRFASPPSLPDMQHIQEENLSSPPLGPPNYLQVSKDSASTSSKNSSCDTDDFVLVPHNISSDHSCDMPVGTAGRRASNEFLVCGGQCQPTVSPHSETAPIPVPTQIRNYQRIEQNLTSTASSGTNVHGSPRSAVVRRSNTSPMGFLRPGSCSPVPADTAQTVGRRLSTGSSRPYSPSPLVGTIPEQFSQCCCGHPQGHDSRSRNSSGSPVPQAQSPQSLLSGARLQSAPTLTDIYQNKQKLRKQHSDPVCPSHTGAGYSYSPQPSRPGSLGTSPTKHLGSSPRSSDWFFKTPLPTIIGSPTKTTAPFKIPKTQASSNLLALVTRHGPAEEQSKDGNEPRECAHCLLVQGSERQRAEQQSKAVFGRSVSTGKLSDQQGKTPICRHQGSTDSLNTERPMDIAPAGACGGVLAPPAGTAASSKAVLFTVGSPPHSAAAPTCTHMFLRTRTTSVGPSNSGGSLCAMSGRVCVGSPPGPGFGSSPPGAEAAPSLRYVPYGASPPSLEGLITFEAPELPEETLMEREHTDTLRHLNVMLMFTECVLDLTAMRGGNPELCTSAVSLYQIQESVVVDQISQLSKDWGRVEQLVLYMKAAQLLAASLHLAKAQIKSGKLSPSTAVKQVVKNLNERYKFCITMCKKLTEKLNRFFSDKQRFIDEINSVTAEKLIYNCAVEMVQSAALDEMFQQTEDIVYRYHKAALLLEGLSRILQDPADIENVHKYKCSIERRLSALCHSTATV

[16] = target: Serine/threonine-protein kinase WNK3 (Homo sapiens) (UniProt Q9BYP7); conditions: Compound concentration 100.0 nM
[17] = target: 5-hydroxytryptamine receptor 1B (Homo sapiens) (UniProt P28222); conditions: Compound concentration 10.0 uM
[18] = target: Muscarinic acetylcholine receptor M3 (Homo sapiens) (UniProt P20309); conditions: Compound concentration 10.0 uM

Cc1c[nH]c2nccc(Oc3c(F)cc(Nc4cc(Cl)nc(N)n4)cc3F)c12 [BAY-549]
inactive: residual activity [1] 72% | residual activity [2] 100% | residual activity [3] 86% | residual activity [4] 68% | residual activity [5] 100% | residual activity [6] 80% | residual activity [7] 100% | residual activity [8] 100% | residual activity [9] 97% | residual activity [10] 98% | residual activity [11] 74% | residual activity [12] 81% | residual activity [13] 100% | residual activity [14] 78% | residual activity [15] 89% | residual activity [16] 90% | inhibition [17] -5.28% | inhibition [18] -0.34%

Cn1cc(Cl)c2c(Oc3c(F)cc(Nc4cc(Cl)nc(N)n4)cc3F)ccnc21 [BAY-4900]
inactive: residual activity [1] 97% | residual activity [2] 97% | residual activity [3] 89% | residual activity [4] 76% | residual activity [5] 100% | residual activity [6] 89% | residual activity [7] 75% | residual activity [8] 100% | residual activity [9] 100% | residual activity [10] 91% | residual activity [11] 80% | residual activity [12] 74% | residual activity [13] 100% | residual activity [14] 81% | residual activity [15] 100% | residual activity [16] 95% | inhibition [17] 5.3% | inhibition [18] -4.88%

Source: ChEMBL document CHEMBL4507274 (2021)
